Data from patent publication US12024510B2, “Pyrazolopyridine-diamides, their use as insecticide and processes for preparing the same” (PI INDUSTRIES LTD., priority 2017, dated 2024).

How the values were obtained:
Assay type in all cases: in vivo
[1] = test system: Spodoptera litura; experiment: Spodoptera litura diet incorporation method; settings: third instar larvae, dead and moribund combined, 96 h after release
Description: (§1) Test Solutions were Prepared According to the Procedure Described Herein Below (500 PPM):
(§2) • 1. Eppendorf Vortex mixer (ThermoMixer C) and 1.5 mL Eppendorf tubes • 2. Zirconia (Zirconium-Yttrium) beads having diameter of 0.8 to 1.0 mm • 3. Microscope • 4. Beaker 100 mL • 5. Micro-pipette Reagents: • 1. Surfactant Solution • 2. De-mineralized (DM) Water • 1. Weigh 10 mg of the compound of the present invention to be tested in an Eppendorf Tube. • 2. Add 200 mg of the Surfactant Solution into the tube. • 3. Add 600 mg of Zirconia beads into the above mixture. • 4. Fix the tube in Eppendorf Vortex mixer and start vortexing at 2000 rpm. • 5. Mix on Vortex mixer for 30 minutes. After 30 minutes, observe the sample over a microscope at 400× resolution. • 6. If the Maximum particle size is more than 5 μm or average particle size is more than 2 μm or the particle size distribution is uneven, continue vortexing for another 30 minutes and again check the particle size using the microscope. Continue till the average particle size is below 2 microns. • 7. When the required particle size is achieved, add 1.0 mL DM water into the tube, close the cap, shake the tube thoroughly and transfer the contents, along with the beads, into a beaker. • 8. To rinse the tube, add another 1.0 mL of DM water into the tube, close the cap, shake well and transfer this into the same beaker. • 9. Repeat Step no. 8 one more time so that the tube is rinsed well and the compound of the present invention to be tested is transferred to the beaker. • 10. Add 16.8 mL of DM water into the beaker and stir well. • 11. The homogeneous dispersion can then be decanted into a glass vial, immediately, to separate the Zirconia beads. • 12. Immediately use this sample for biological testing. • 13. Further dilutions can be prepared by taking appropriate quantity of the aliquot of Step 10, immediately after stirring, and diluting as per requirement. The sample solution must be well mixed just before biological testing.
(§3) Diet incorporation method was used, in which semi-synthetic diet was incorporated into the test solution when the temperature is approximately 50° C. in the bioassay containers and stirred thoroughly for properly mixing and then was allowed to cool for 30 min. The solidified diet was cut into equal pieces, and then each piece was transferred in one cell in Bio-assay trays. A single third instar starved larva was released into each of these cells of bioassay trays and the tray was covered with the lid. The bio-assay trays were kept under laboratory conditions at a temperature of 25° C. and Relative Humidity of 70%. Observations on dead, moribund and live larvae were recorded at 96 h after the release of larvae. Percent mortality was calculated by combining dead and moribund larvae. The following compound numbers

[2] = test system: Helicoverpa armigera; experiment: Helicoverpa armigera diet incorporation method; settings: third instar larvae, dead and moribund combined, 96 h after release
Description: as §1, §2
as §3, with “which and” for “which”

[3] = test system: Plutella xylostella; experiment: whole plant or invertebrate; settings: foliar, cabbage leaf dip, second instar larvae, dead and moribund combined, 72 h after release
In short: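 Compounds milled with zirconia beads into surfactant dispersion (500 ppm stock), diluted in 0.01% Triton-X. Cabbage leaves dipped 10 s, shade-dried 20 min; one second-instar larva per cell, 25 °C, 70% RH. Mortality (dead plus moribund) scored at 72 h.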

SMILES | mortality at 300 ppm [1] [%] | mortality at 300 ppm [2] [%] | mortality at 300 ppm [3] [%]
Cc1cc2ccnn2c(C(=O)NC(C)C2CC2)c1NC(=O)c1cc(OCC(F)(F)F)nn1-c1ncccc1Cl (centres unmarked) [Compound 121, 6-(1-(3-chloropyridin-2-yl)-3-(2,2,2-trifluoroethoxy)-1H-pyrazole-5-carboxamido)-N-(1-cyclopropylethyl)-5-methylpyrazolo[1,5-a]pyridine-7-carboxamide] | > 70 | > 70 | 
C=CCNC(=O)c1c(NC(=O)c2cc(C(F)(F)F)nn2-c2ncccc2Cl)c(C)cc2ccnn12 [Compound 64, N-allyl-6-(1-(3-chloropyridin-2-yl)-3-(trifluoromethyl)-1H-pyrazole-5-carboxamido)-5-methylpyrazolo[1,5-a]pyridine-7-carboxamide] | > 70 | > 70 | 
Cc1cc2ccnn2c(C(=O)NC2(C#N)CC2)c1NC(=O)c1cc(Br)nn1-c1ncccc1Cl [Compound 216, 6-(3-bromo-1-(3-chloropyridin-2-yl)-1H-pyrazole-5-carboxamido)-N-(1-cyanocyclopropyl)-5-methylpyrazolo[1,5-a]pyridine-7-carboxamide] | > 70 |  | > 70
Cc1cc2ccnn2c(C(=O)NC(C)C2CC2)c1NC(=O)c1cc(OC2CSC2)nn1-c1ncccc1Cl (centres unmarked) [Compound 146, 6-(1-(3-chloropyridin-2-yl)-3-(thietan-3-yloxy)-1H-pyrazole-5-carboxamido)-N-(1-cyclopropylethyl)-5-methylpyrazolo[1,5-a]pyridine-7-carboxamide] | > 70 | > 70 | 
CCONC(=O)c1c(NC(=O)c2cc(Br)nn2-c2ncccc2Cl)c(C)cc2ccnn12 [Compound 106, 6-(3-bromo-1-(3-chloropyridin-2-yl)-1H-pyrazole-5-carboxamido)-N-ethoxy-5-methylpyrazolo[1,5-a]pyridine-7-carboxamide] | > 70 |  | > 70
COc1cc(C(=O)Nc2c(C)cc3ccnn3c2C(=O)NCC(F)(F)F)n(-c2ncccc2Cl)n1 [Compound 110, 6-(1-(3-chloropyridin-2-yl)-3-methoxy-1H-pyrazole-5-carboxamido)-5-methyl-N-(2,2,2-trifluoroethyl)pyrazolo[1,5-a]pyridine-7-carboxamide] | > 70 |  | > 70
Cc1cc2ccnn2c(C(=O)NC(C)CCC(C)C)c1NC(=O)c1cc(Br)nn1-c1ncccc1Cl (centres unmarked) [Compound 188, 6-(3-bromo-1-(3-chloropyridin-2-yl)-1H-pyrazole-5-carboxamido)-5-methyl-N-(5-methylhexan-2-yl)pyrazolo[1,5-a]pyridine-7-carboxamide] | > 70 |  | > 70
CCNC(=O)c1c(NC(=O)c2cc(Br)nn2-c2ncccc2Cl)c(Cl)cc2ccnn12 [Compound 142, 6-(3-bromo-1-(3-chloropyridin-2-yl)-1H-pyrazole-5-carboxamido)-5-chloro-N-ethylpyrazolo[1,5-a]pyridine-7-carboxamide] | > 70 |  | > 70
COCCNC(=O)c1c(NC(=O)c2cc(OCC(F)(F)F)nn2-c2ncccc2Cl)c(C)cc2ccnn12 [Compound 17, 6-(1-(3-chloropyridin-2-yl)-3-(2,2,2-trifluoroethoxy)-1H-pyrazole-5-carboxamido)-N-(2-methoxyethyl)-5-methylpyrazolo[1,5-a]pyridine-7-carboxamide] | > 70 |  | > 70
Cc1cc2ccnn2c(C(=O)NCCC#N)c1NC(=O)c1cc(OCC(F)(F)F)nn1-c1ncccc1Cl [Compound 47, 6-(1-(3-chloropyridin-2-yl)-3-(2,2,2-trifluoroethoxy)-1H-pyrazole-5-carboxamido)-N-(2-cyanoethyl)-5-methylpyrazolo[1,5-a]pyridine-7-carboxamide] | > 70 |  | > 70
